Results from patent publication US20260166159A1, “KRAS G12D DEGRADATION AGENT, AND PREPARATION METHOD AND USE THEREFOR” (LEADINGTAC PHARMACEUTICAL (SHAOXING) CO., LTD., priority 2022, published 2026).

Assays:
[1] = test system: KRAS G12D mutant human metastatic pancreatic cancer cell AsPc-1; assay: 3D cell proliferation inhibition assay, AsPc-1; assay type: cell-based; conditions: ASPC1, 168 h, AsPc-1, 7 days, CTG, numeric values
Method in brief: (§1)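 Cells seeded at 5×10^2 per well in low-adsorption plates with compounds at 10000–0.026 nM final (0.2% DMSO) and grown 7 days at 37 °C, 5% CO2. Viability by CellTiter-Glo luminescence after 60 min at room temperature; inhibition normalized to DMSO and medium-only controls, IC50 from nonlinear log-concentration fit.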

[2] = test system: KRAS G12D mutant human pancreatic cancer cell Panc 04.03; assay: 3D cell proliferation inhibition assay, Panc 04.03; assay type: cell-based; conditions: 168 h, Panc 04.03, 7 days, CTG, numeric values
Source text: The inhibitory effects of the compounds on 3D cell proliferation were investigated on KRAS G12D mutant human lung cancer cell A427, KRAS G12D mutant human gastric cancer cell AGS, KRAS G12D mutant human metastatic pancreatic cancer cell AsPc-1, KRAS G12D mutant human pancreatic cancer cell Panc 04.03, KRAS G12D mutant human pancreatic cancer cell HPAC, KRAS G12V mutant human lung squamous cell carcinoma cell SW900, and KRAS WT human gastric cancer cell MKN1. The specific procedures were as follows:
10 μL of each compound solution diluted in a gradient was added to corresponding wells of a 96-well low-adsorption microplate (PerkinElmer), so that the final concentrations of the test compounds in the reaction system were in a range of 10000-0.026 nM. The final concentration of DMSO was 0.2%. Then 90 µL of cells were correspondingly seeded into each well to achieve a cell density of 5×10^2 cells/well (the cell density of SW900 was 5×10^1 cells/well, and the cell density of MKN1 was 1×10^3 cells/well). In addition to test wells for the test compounds, both a DMSO control well and a medium control well were set, with the DMSO control well containing DMSO and cells and the medium well containing only a medium. After the sample loading, the 96-well low-adsorption microplate was incubated in an incubator at 37° C. with 5% carbon dioxide for 7 days. After 7 days, the microplate was taken out, and 100 μL of CTG reagent (Promega) was added to each well. The plate was incubated at room temperature for 60 min and read on a microplate reader EnVision by the chemiluminescence program. The inhibition rates of the compounds at each concentration were calculated using the formula for the percentage inhibition of cell proliferation: inhibition rate %=(mean value of DMSO control group−single concentration reading value of compound)/(mean value of DMSO control group−mean value of medium control group)×100. Then non-linear curve fittings for logarithmic concentration-inhibition rate were performed by GraphPad Prism 8, and the IC50 values of the compounds were obtained (Table 5).

[3] = target: T1, KRAS-G12D (Homo sapiens, UniProt P01116, G12D); assay: KRAS-G12D degradation assay (Western Blot), AsPc-1 cells; assay type: cell-based; conditions: for DC50: 24 h; for Dmax: ASPC1, 24 h
T1 construct: endogenous in cells; host or cells: A-427 (ATCC), AGS, AsPc-1, Panc 04.03
T1 sequence (P01116 1-188 isoform P01116-2 G12D): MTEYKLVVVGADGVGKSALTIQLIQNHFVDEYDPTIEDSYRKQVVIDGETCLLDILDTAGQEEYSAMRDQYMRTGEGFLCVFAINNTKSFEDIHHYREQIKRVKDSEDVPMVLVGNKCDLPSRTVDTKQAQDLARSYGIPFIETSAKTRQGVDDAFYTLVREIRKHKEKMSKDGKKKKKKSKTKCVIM
Method in brief: (§2)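 Each KRAS G12D mutant line (A-427, AGS, AsPc-1, Panc 04.03) was seeded at 5×10^5 cells/well and treated 24 h at 37 °C with 0.03–3000 nM compound (final DMSO 0.25%). KRAS in lysates was measured by Western blot, normalized to β-actin and compared with controls, giving DC50 and Dmax from curve fits.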

[4] = test system: KRAS G12D mutant human pancreatic cancer cell HPAC; assay: 3D cell proliferation inhibition assay, HPAC; assay type: cell-based; conditions: 168 h, 7 days, CTG
Method in brief: as §1

[5] = test system: KRAS G12D mutant human gastric cancer cell AGS; assay: 3D cell proliferation inhibition assay, AGS; assay type: cell-based; conditions: 168 h, 7 days, CTG, numeric values
Method in brief: as §1

[6] = test system: KRAS G12D mutant human lung cancer cell A427; assay: 3D cell proliferation inhibition assay, A427; assay type: cell-based; conditions: A-427, 168 h, A427, 7 days, CTG, numeric values
Method in brief: as §1

[7] = target: T2, Human KRAS G12D 6His-tagged (Homo sapiens, UniProt P01116, G12D); assay: KRAS-G12D/GTP binding assay (HTRF); conditions: numeric values
T2 construct: purchased PerkinElmer
T2 sequence (P01116 1-188 isoform P01116-2 G12D): as above
Method in brief: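 HTRF kit format: 6His-tagged KRAS G12D incubated with compound (final 0.02-5000 nM, 0.5% DMSO), anti-6His Eu cryptate antibody and GTP Red reagent for 1 h at 25° C. 665/620 nm ratio versus control gave inhibition rates; IC50 by nonlinear fit.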

[8] = target: T1, KRAS-G12D; assay: KRAS-G12D degradation assay (Western Blot), A-427 cells; assay type: cell-based; conditions: A427 cells, 24 h, numeric values
Method in brief: as §2

Structure (SMILES) | IC50 [1] [nM] | IC50 [2] [nM] | DC50 [3] [nM] | Dmax [3] [%] | IC50 [4] [nM] | IC50 [5] [nM] | IC50 [6] [nM] | IC50 [7] [nM] | DC50 [8] [nM] | Dmax ([8]; A-427) [%]
C#Cc1c(F)ccc2cc(O)cc(-c3ncc4c(N5CC6CCC(C5)N6)nc(OC[C@H](C)CN5CCN(CC6CCC7(CC6)CCN(C(=O)c6cc(N8CCC(=O)NC8=O)c(C)cc6F)CC7)CC5)nc4c3F)c12 [Example 173, 1-(5-(9-((4-((R)-3-((4-(3,8-diazabicyclo[3.2.1]octan-3-yl)-7-(8-ethynyl-7-fluoro-3-hydroxynaphthalen-1-yl)-8-fluoropyrido[4,3-d]pyrimidin-2-yl)oxy)-2-methylpropyl)piperazin-1-yl)methyl)-3-azaspiro[5.5]undecane-3-carbonyl)-4-fluoro-2-methylphenyl)dihydropyrimidine-2,4(1H,3H)-dione] | 1.51 | 5.88 | 2.42 | 99 | 3.8 | 4.22 |  |  |  | 
C#Cc1c(F)ccc2cc(O)cc(-c3ccc4c(N5CC6CCC(C5)N6)nc(OCC(C)CN5CCN(CC6CCC7(CC6)CCN(C(=O)c6ccc(C)c(N8CCC(=O)NC8=O)c6)CC7)CC5)nc4c3F)c12 (stereo not drawn) [Example 174, 1-(5-(9-((4-(3-((4-(3,8-diazabicyclo[3.2.1]octan-3-yl)-7-(8-ethynyl-7-fluoro-3-hydroxynaphthalen-1-yl)-8-fluoroquinazolin-2-yl)oxy)-2-methylpropyl)piperazin-1-yl)methyl)-3-azaspiro[5.5]undecane-3-carbonyl)-2-methylphenyl)dihydropyrimidine-2,4(1H,3H)-dione] | 62.5 | 31.3 | 13.6 | 100 | 1.78 | 19.4 | 64.2 | 5.19 |  | 
C#Cc1c(F)ccc2cc(O)cc(-c3ncc4c(N5CC6CCC(C5)N6)nc(OCC5(CN6CCN(CC7CCC8(CC7)CCN(C(=O)c7ccc(CC)c(N9CCC(=O)NC9=O)c7)CC8)CC6)CC5)nc4c3F)c12 [Example 243, 1-(5-(9-((4-((1-(((4-(3,8-diazabicyclo[3.2.1]octan-3-yl)-7-(8-ethynyl-7-fluoro-3-hydroxynaphthalen-1-yl)-8-fluoropyrido[4,3-d]pyrimidin-2-yl)oxy)methyl)cyclopropyl)methyl)piperazin-1-yl)methyl)-3-azaspiro[5.5]undecane-3-carbonyl)-2-ethylphenyl)dihydropyrimidine-2,4(1H,3H)-dione] | 2.34 | 21.7 |  |  | 0.61 | 2.16 | 121 |  | 1.66 | 92.9
C#Cc1c(F)ccc2cc(O)cc(-c3ncc4c(N5CC6CCC(C5)N6)nc(OC[C@@H](CN5CCN(CC6CCC7(CC6)CCN(C(=O)c6ccc(OC)c(N8CCC(=O)NC8=O)c6)CC7)CC5)C(C)C)nc4c3F)c12 [Example 252, 1-(5-(9-((4-((R)-2-(((4-(3,8-diazabicyclo[3.2.1]octan-3-yl)-7-(8-ethynyl-7-fluoro-3-hydroxynaphthalen-1-yl)-8-fluoropyrido[4,3-d]pyrimidin-2-yl)oxy)methyl)-3-methylbutyl)piperazin-1-yl)methyl)-3-azaspiro[5.5]undecane-3-carbonyl)-2-methoxyphenyl)dihydropyrimidine-2,4(1H,3H)-dione] | 21 | 51 | 42.3 | 100 | 18.9 | 31.7 |  |  |  | 
[2H]C([2H])([2H])Oc1ccc(C(=O)N2CCC3(CCC(CN4CCN(C[C@@H](C)COc5nc(N6CC7CCC(C6)N7)c6cnc(-c7cc(O)cc8ccc(F)c(C#C)c78)c(F)c6n5)CC4)CC3)CC2)cc1N1CCC(=O)NC1=O [Example 253, 1-(5-(9-((4-((R)-3-((4-(3,8-diazabicyclo[3.2.1]octan-3-yl)-7-(8-ethynyl-7-fluoro-3-hydroxynaphthalen-1-yl)-8-fluoropyrido[4,3-d]pyrimidin-2-yl)oxy)-2-methylpropyl)piperazin-1-yl)methyl)-3-azaspiro[5.5]undecane-3-carbonyl)-2-(methoxy-d3)phenyl)dihydropyrimidine-2,4(1H,3H)-dione] | 1.59 | 18.8 | 1.39 | 100 | 10.6 | 3.92 |  |  |  | 
